Measurements as given in US8716317B2, “Sulfonamides with heterocycle and oxadiazolone headgroup, processes for their preparation and their use as pharmaceuticals” (Sanofi, priority 2008, dated 2014).
Like-named read-outs stand apart in the source and are kept apart here.

Legend:
human PPARalpha = biological target: T1, human PPARalpha (Homo sapiens, UniProt Q07869); experiment: Cellular PPARalpha assay (luciferase reporter, stably transfected HEK cell line); type: cell-based; details: GR-GAL4-humanPPARalpha-LBD
T1 construct: amino acids S167-Y468; expressed in transfected cells; host or cells: HEK (human embryo kidney) cells, stably transfected with a pcDNA3 construct
T1 sequence (Q07869 167-468): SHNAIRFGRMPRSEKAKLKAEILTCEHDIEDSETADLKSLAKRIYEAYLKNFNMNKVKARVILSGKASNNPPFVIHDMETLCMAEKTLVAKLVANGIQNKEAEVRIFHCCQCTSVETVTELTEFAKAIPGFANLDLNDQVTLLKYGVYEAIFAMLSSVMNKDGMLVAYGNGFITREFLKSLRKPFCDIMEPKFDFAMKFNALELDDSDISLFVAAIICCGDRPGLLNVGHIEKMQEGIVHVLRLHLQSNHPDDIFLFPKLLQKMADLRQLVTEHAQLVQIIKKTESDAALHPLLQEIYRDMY
Protocol: (§1) The potency of substances which bind to human PPARalpha and activate it in an agonistic manner is analyzed using a stably transfected HEK cell line (HEK=human embryo kidney) which is referred to here as PPARalpha reporter cell line. It contains two genetic elements, a luciferase reporter element (pdeltaM-GAL4-Luc-Zeo) and a PPARalpha fusion protein (GR-GAL4-humanPPARalpha-LBD) which mediates expression of the luciferase reporter element depending on a PPARalpha ligand. The stably and constitutively expressed fusion protein GR-GAL4-humanPPARalpha-LBD binds in the cell nucleus of the PPARalpha reporter cell line via the GAL4 protein portion to the GAL4 DNA binding motifs 5″-upstream of the luciferase reporter element which is stably integrated in the genome of the cell line. There is only weak expression of the luciferase reporter gene in the absence of a PPARalpha ligand if fatty acid-depleted fetal calf serum (cs-FCS) is used in the assay. PPARalpha ligands bind and activate the PPARalpha fusion protein and thereby stimulate the expression of the luciferase reporter gene. The luciferase which is formed can be detected by means of chemiluminescence via an appropriate substrate.
The PPARalpha reporter cell line was prepared in two stages. […]
The activity of PPARalpha agonists is determined in a 3-day assay which is described below: […]

human PPARdelta = biological target: T2, human PPARdelta (Homo sapiens, UniProt Q03181); experiment: Cellular PPARdelta assay (luciferase reporter, stably transfected HEK cell line); type: cell-based; details: GR-GAL4-humanPPARdelta-LBD
T2 construct: amino acids S139-Y441; expressed in transfected cells; host or cells: HEK (human embryo kidney) cells, stably transfected with a pcDNA3 construct
T2 sequence (Q03181 139-441): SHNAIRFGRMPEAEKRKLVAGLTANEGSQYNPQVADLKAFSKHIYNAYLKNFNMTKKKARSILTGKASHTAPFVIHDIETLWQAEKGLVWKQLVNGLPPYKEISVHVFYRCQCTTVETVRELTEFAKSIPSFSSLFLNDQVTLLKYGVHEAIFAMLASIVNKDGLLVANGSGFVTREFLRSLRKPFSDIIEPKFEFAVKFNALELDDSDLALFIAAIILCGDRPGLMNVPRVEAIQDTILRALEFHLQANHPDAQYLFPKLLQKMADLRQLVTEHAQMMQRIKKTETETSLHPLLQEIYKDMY
Protocol: as §1, with “PPARdelta” for “PPARalpha”, “In analogy to the assay described for PPARalpha, the PPARdelta reporter cell line also” for “It”, “(GR-GAL4-humanPPARdelta-LBD)” for “(GR-GAL4-humanPPARalpha-LBD)”, “GR-GAL4-humanPPARdelta-LBD” for “GR-GAL4-humanPPARalpha-LBD”, “little” for “weak”, “stimulate” for “stimulate the”
The production of the stable PPARdelta reporter cell line is based on a stable HEK-cell clone which was stably transfected with a luciferase reporter element. This step was already described above in the section “construction of the PPARalpha reporter cell line”. […]
The activity of PPARdelta agonists is determined in a 3-day assay in exact analogy to the procedure already described for the PPARalpha reporter cell line except that the PPARdelta reporter cell line and a specific PPARdelta agonist was used as a standard to control test efficacy.

[1] = diabetic animal model; cited from earlier work
[2] = obese, insulin resistant rhesus monkeys, cited from earlier work
[3] = rhesus and cynomolgus monkeys; cited from earlier work
[4] = two weeks clinical trials in healthy volunteers; cited from earlier work

**Q.** With `O=c1[nH]c(-c2ccc(S(=O)(=O)N3CCc4cc(-c5ccc(C(F)(F)F)cc5)ccc43)s2)no1` [Example 1, 3-{5-[5-(4-Trifluoromethyl-phenyl)-2,3-dihydro-indole-1-sulfonyl]thiophen-2-yl}-4H-[1,2,4]oxadiazol-5-one] as the molecule, how does the EC50 (human PPARalpha) read?
**A.** 920 nM

**Q.** What about the EC50 (human PPARdelta) of the same molecule?
**A.** 21 nM

**Q.** What does the source list for `O=c1[nH]c(-c2ccc(S(=O)(=O)N3CCc4cc(-c5ccc(C(F)(F)F)cc5)ccc43)nc2)no1` [Example 2, 3-{6-[5-(4-Trifluoromethyl-phenyl)-2,3-dihydro-indole-1-sulfonyl]-pyridin-3-yl}-4H-[1,2,4]oxadiazol-5-one]?
**A.** EC50 (human PPARalpha): 6700 nM; EC50 (human PPARdelta): 336 nM

**Q.** With `O=c1[nH]c(-c2ccc(S(=O)(=O)N3CCc4cc(-c5ccc(C(F)(F)F)cc5)ccc43)cn2)no1` [Example 3, 3-{5-[5-(4-Trifluoromethyl-phenyl)-2,3-dihydro-indole-1-sulfonyl]-pyridin-2-yl}-4H-[1,2,4]oxadiazol-5-one] as the molecule, how does the EC50 (human PPARdelta) read?
**A.** 13 nM

**Q.** With `CCCc1c(OCCCOc2ccc(OCC(=O)O)cc2)ccc(C(C)=O)c1O` [Example L-165041] as the molecule, how does the plasma cholesterol [1] read?
**A.** raises plasma cholesterol

**Q.** Which results are given for `Cc1cc(SCc2sc(-c3ccc(C(F)(F)F)cc3)nc2C)ccc1OCC(=O)O` [GW501516]?
**A.** insulin levels ([2]; plasma): decreases; triglycerides ([2]; plasma): decreases; HDL-cholesterol [2]: raises; plasma LDL-cholesterol [2]: decreases

**Q.** Which results are given for `CCCc1c(OCCCSc2nnc(SCC(=O)O)s2)ccc(C(C)=O)c1O` [YM-16638]?
**A.** plasma lipids [3]: significantly lowers plasma lipids; plasma lipids [4]: acts in a similar manner
